The subject of data set [1] is SARS-CoV-2. The experiment in a line: Drug assay of SARS-CoV-2 replication on Vero CCL-81 cells (PCR). It is filed as cell-based. The conditions noted are these: Vero CCL-81, MOI 0.05, 24 h, added 1 h before or 1 h after infection.
The test system of data set [2] is oligomer corresponding to the coronaviral pseudoknot. To be noted: shape of MST binding curve.
Data set [3] can be described thus: Solubility in aqueous media.
Data set [4] has as its system RNA 69-er with a sequence that corresponds to the coronaviral pseudoknot. It is filed as biochemical. The conditions noted are these: 1 mM, 3 h incubation, 37° C.
For data set [5], the target named is perturbed pseudoknot oligonucleotide. The experiment in a line: Micro-scale thermophoresis (MST), perturbed pseudoknot. It is filed as binding. To be noted: FAM-tagged oligonucleotide 50 nM, HEPES pH 7.4, 25.0° C.
Data set [6] concerns SARS-CoV-2. It is filed as in vivo, K18-hACE2 mice. To be noted: 10 mg/kg intranasally 1 hour pre- and 3 hours post-infection, day 5, plaque assay, vs vehicle.
The subject of data set [7] is SARS-CoV-2. It is filed as cell-based. To be noted: 6 μM for 24 h, added before or after infection, vs vehicle control.
The subject of data set [8] is frameshifting in SARS-CoV-2. The conditions noted are these: Kelly et al., 2020; cited from earlier work.
The subject of data set [9] is RNA extracted from SARS-CoV-2. It is filed as biochemical. To be noted: 100 μM, 2 h, 37° C.
For data set [10], the system named is SARS-CoV-2. The experiment in a line: Virucidal activity on cell free virions. To be noted: 6 μM, 1 h at 37° C., 1000 PFU, plaque assay.
For data set [11], the system named is G4 structure found on 5′UTR of NRAS mRNA. The experiment in a line: Fluorescence quenching assay. It is filed as binding. The conditions noted are these: Cy5-tagged oligonucleotide 50 nM, HEPES pH 7.4, 25.0° C. On the procedure: To prepare oligonucleotides for binding studies, oligonucleotides were dissolved at an appropriate buffer to a final concentration of 100 nM, then incubated at 95° C. with shaking for 5 min. Samples were allowed to cool at room temperature for at least 1 h before further dilutions/treatments.
Cy5-tagged oligonucleotide corresponding to G4 structure found on 5′UTR of NRAS mRNA (final concentration 50 nM) were dissolved in 20 mM HEPES pH 7.4 buffer supplemented with KCl (100 mM) and MgCl2 (10 mM) and plated on a 96-well plate. Oligonucleotides were treated with various concentrations of PDS family ligands as indicated, ranging from 5 nM to 10 μM, or a water vehicle control, followed by 30 minute incubation at 4° C. Fluorescence corresponding to Cy5 fluorophore was then measured for each oligonucleotide-small molecule/vehicle control combination using a plate reader (BMG CLARIOstar) at 25.0° C. […] Fluorescence was normalised to a vehicle control and binding curves for each molecule were obtained via a sigmoidal fit by setting the Hill Slope coefficient to 1.
PDS and its derivatives were incubated with a Cy5-functionalised oligomer corresponding to a G-quadruplex in NRAS 5′UTR, a well-established G4 model. As fluorescence quenching is proximity-induced, the signal corresponding to Cy5 is quenched upon PDS binding. […]

In the next data set the test system is pseudoknot. To be noted: relative to MTDB (Park et al., 2011); cited from earlier work.
The subject of another data set is E. coli ribosome. The experiment in a line: In vitro degradation of E. coli ribozyme (agarose gel). It is filed as biochemical. The conditions noted are these: 15 mM to 0.47 mM, 18 hours, 200 μM ribozyme. Here is the method: The degradation activity was measured in an in vitro assay, targeting the E. coli ribosome. […] Evaluation was made by agarose gel analysis.

“Also recorded” adds a separate entry of the source.

In the case of `CCOC(=O)c1ccccc1NC(=O)N1CCCN(Cc2csc(C)n2)CC1` [MTDB], the “antiviral effect (viral replication, E gene and pseudoknot region RNA)” value in the data set on SARS-CoV-2 [1] is given as “did not exhibit an antiviral effect; also recorded: did not inhibit viral replication”. Moreover, the “concentration with noticeable binding” value in [2] was not below 187.5 µM. For the same compound, the solubility result in data set [3] is “not soluble enough for KD determination using MST; also recorded: limited solubility”. The “degradation of RNA pseudoknot” value in [4] is on record as “no degradation”. Besides, the KD result in data set [5] is listed as “No appreciable binding was observed”. Further, in the data set with SARS-CoV-2 [6], the lung viral load result is given as “No differences in lung viral load”. The “number of viral plaques” value in the data set with SARS-CoV-2 [7] is recorded as “only showed decreased number of viral plaques when added before infection”. Besides, the frameshifting entry in [8] is listed as “known to disrupt frameshifting in SARS-CoV-2”. Further, the “degradation of native SARS-CoV-2 RNA on agarose gel” value in data set [9] is listed as “do not”. Besides, the virucidal effect entry in the data set with SARS-CoV-2 [10] is given as “no virucidal effect was observed; also recorded: no virucidal effect on cell free virions”.

In the case of `NCCOc1cc(C(=O)Nc2cc(OCCN)c3ccccc3n2)nc(C(=O)Nc2cc(OCCN)c3ccccc3n2)c1` [PDS, Pyridostatin], the EC50 in [11] is 51 nM.

As for `CCOC(=O)c1ccccc1NC(=O)N1CCCN(Cc2ccsc2)CC1` [TDB], in the data set with pseudoknot, the “binding affinity towards the pseudoknot” value is reported as “lower binding affinity towards the pseudoknot”.

Consider `O=C(N[C@H](CO)[C@H](O)c1ccc([N+](=O)[O-])cc1)C(Cl)Cl` [chloramphenicol, Chloramphenicol], for which the ribosome degradation entry in the data set on E. coli ribosome was “no degradation”.

Turning to “chloramphenicol-2PEG-imidazole degrader [18b]”, the ribosome degradation entry is listed as “ribosome degradation could be observed at a concentration of 15 mM” in the data set with E. coli ribosome and “degradation visible at 15 mM concentration” in the data set on E. coli ribosome (listed as diethylene glycol linker).

For “chloramphenicol-6PEG-imidazole degrader [18a]”, in the data set with E. coli ribosome, the ribosome degradation result was “no degradation visible”.

“chloramphenicol-ethyl-imidazole degrader [18c]”: the ribosome degradation result in the data set with E. coli ribosome is “no degradation visible”.

(Values after US20240417778A1, “Methods for Nucleic Acid Cleavage” (priority 2021, published 2024).)
